Test results taken from US9938240B2, “Fluorinated derivatives of 3-hydroxypyridin-4-ones” (Apotex Technologies Inc., priority 2009, dated 2018).
One block for each compound: values may come before it.

How the values were obtained:
[1] = Oral cassette dosing PK/BBB studies; format: in vivo, male Sprague-Dawley rats; details: for BBB penetration: cassette dosing BBB studies in rats, in words; for AUC brain* / Kp / AUC: oral cassette dosing, male Sprague-Dawley rats; for AUC brain* / AUC: AUC normalized to 1 mg/kg dose; for Kp / AUC: rat; for Kp: brain and plasma, read-out: AUC brain/AUC plasma; for AUC: plasma
Protocol: In-vivo pharmacokinetic (PK) and blood brain barrier (BBB) studies were conducted in male Sprague-Dawley rats using cassette dosing via oral administration. […] No. 15, pp. 652-658.

[2] = pKa determination by potentiometric titration; format: physicochemical
Protocol: The pKa values of ligands were determined by potentiometric titration when a ligand concentration >1×10^−2 M in water could be prepared. In a typical experiment, the sample solution (1.00×10^−2 M) was prepared by the following method: Apo7041 (125.4 mg) was weighed into a 50 mL volumetric flask, and about 40 mL of 0.1 M NaCl was added. The mixture was sonicated for 10 min to give a clear colorless solution. More of the 0.1 M NaCl was added to volume and the resulting solution was vortexed to mix. 40 mL of the solution was transferred into a T70 titration cell by using a 10 mL digital pipet A 6.000 N sodium hydroxide solution (127 μL, 1.9 equiv) was added, and the pH (11.82) of the solution was recorded. The solution was allowed to equilibrate at 22° C. for 5 min.
The solution was then titrated against a 6.000 N hydrochloric acid solution at 22° C. by using a Mettler Toledo T70 autotitrator, until the pH reached 1.5. The volume of acid added and the pH reading were recorded. Thus, 501 measurements were taken for this experiment.
The data set of pH vs. acid volume was analyzed using Hyperquad 2000 software (version 2.1, Peter Gans, University of Leeds). The pKa values were obtained using the model: L^−+H^+⇄LH (pKa1), LH+H^+⇄LH2^+, and LH2^++H^+⇄LH3^2+ (pKa3).
The pKa values of Apo7041 in the same mixed solvent were also determined by potentiometric titration using the procedure described in Example 1.

[3] = system: SH-SY5Y human neuroblastoma cells; details: for CC2 (cytotoxic concentration): H2O2-treated cells, viability below 80%; for CC1 (cytotoxic concentration): absence of H2O2, viability below 80%
Summary of the method: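 SH-SY5Y cells were treated with a range of compound concentrations, with or without 50 μM H2O2, in serum-free medium for 16–22 h. Viability was measured by MTT and expressed relative to cells receiving neither H2O2 nor compound. Runs without H2O2 assessed cytotoxicity.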

[4] = system: human neuroblastoma MC-65 cells; test: cells; details: for EC100 / minimal effective concentration: Homo sapiens, MC65, 48 h; for EC100: read-out: EC100 (maximum effective concentration); for minimal effective concentration: read-out: TH (threshold protective concentration); for CC2 (cytotoxic concentration): MC-65, cultured without tetracycline; for CC2 (cytotoxic concentration) / CC1 (cytotoxic concentration): viability below 80%; for CC1 (cytotoxic concentration): MC-65, presence of TET
Summary of the method: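 MC-65 cells (conditional Aβ fusion-protein expression, TET-repressed) were washed free of TET and FBS, then exposed to compound ~48 h in serum-free medium without or with 1 μg/mL TET.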

[5] = pKa determination by potentiometric titration; format: physicochemical; details: 0.1M aqueous NaCl/MeOH, 1/1, v/v
[6] = Pharmacokinetics following oral administration to rats; format: in vivo, male Sprague Dawley rats; details: rat, oral 50 mg/kg in 0.5% CMC; for Brain AUC_D_obs / Brain Cmax_D / Plasma AUC_D_obs / Plasma Cmax_D: dose-normalized
Protocol: Adult male Sprague Dawley rats (275-325 g, Charles River Laboratories, Saint Constant, Quebec) were orally dosed with 50 mg/kg of test compound (Apo7323, Apo7433, Apo7435 or Apo7448) suspended in 0.5% carboxymethylcellulose (CMC) in water. For each test compound, samples were obtained from the plasma and brain of three animals per time point, at 0 (dosed with 0.5% CMC), 0.25, 0.5, 1, 2, 4, 8 and 12 h following administration. The concentration of the compound in rat plasma and brain samples was determined by HPLC-UV. Pharmacokinetic parameters were computed using the PKPlus Module in GastroPlus® ver. 8.0 (Simulations Plus Inc., Lancaster, Calif.). Calculation method: linear trapezoidal with linear interpolation.

[7] = 0.1M aqueous NaCl/MeOH, 1/1, v/v
[8] = potentiometric, 0.1 M NaCl, 22° C.
[9] = 0.1M aqueous NaCl (Table 1, Fe3+ chelation, footnote b)

SMILES: CN(C)C(c1c(O)c(=O)ccn1C)C(F)(F)F (stereo not shown) [Apo7041, 2-[1-(dimethylamino)-2,2,2-trifluoroethyl]-3-hydroxy-1-methylpyridin-4(1H)-one]
- BBB penetration [1]: less favorable than deferiprone in BBB penetration
- AUC brain* [1]: 450 ng·h/mL
- Kp [1]: 0.75
- AUC [1]: 600 ng·h/mL
- pKa1 + pKa2 ([2]; 0.1 M NaCl): 12.91
- pKa1 + pKa2 + pKa3 ([2]; 0.1 M NaCl): 14.57
- pKa1 + pKa2 + pKa3 [2, 7]: 15.3
- pKa3 [2, 7]: pKa3 = 2.0
- pKa1 ([2]; 0.1M aqueous NaCl/MeOH, 1/1, v/v, listed as drawing 104): pKa1 = 10.1
- pKa1 [2, 8]: 9.39
- pKa2 [2, 8]: 3.52
- pKa3 [2, 8]: 1.66
- CC2 (cytotoxic concentration) [3]: 320 µM
- CC1 (cytotoxic concentration) [3]: 160 µM
- EC100 [4]: 10 µM
- minimal effective concentration [4]: 0.1 µM
- CC2 (cytotoxic concentration) [4]: 80 µM
- CC1 (cytotoxic concentration) [4]: 10 µM
- pKa1 [5]: 10.1
- pKa1 + pKa2 [5]: 13.3
- pKa2 [5]: pKa2 = 3.2

SMILES: CNC(c1cn(C)c(C)c(O)c1=O)C(F)(F)F (stereo not shown) [Apo7056, 3-Hydroxy-1,2-dimethyl-5-[2,2,2-trifluoro-1-(methylamino)ethyl]pyridin-4(1H)-one]
- AUC brain* [1]: 770 ng·h/mL
- Kp [1]: 0.56
- AUC [1]: 1380 ng·h/mL
- EC100 [4]: 10 µM
- minimal effective concentration [4]: 0.1 µM
- CC2 (cytotoxic concentration) [4]: 80 µM
- CC1 (cytotoxic concentration) [4]: 80 µM

SMILES: CN(C)Cc1c(O)c(=O)ccn1CC(F)(F)F [Apo7067, 2-[(dimethylamino)methyl]-3-hydroxy-1-(2,2,2-trifluoroethyl)pyridin-4(1H)-one]
- BBB penetration [1]: readily penetrates the BBB
- AUC brain* [1]: 740 ng·h/mL
- Kp [1]: 1.5
- AUC [1]: 500 ng·h/mL
- CC2 (cytotoxic concentration) [3]: >640 µM
- CC1 (cytotoxic concentration) [3]: 160 µM
- EC100 [4]: 10 µM
- minimal effective concentration [4]: 0.1 µM
- CC2 (cytotoxic concentration) [4]: 80 µM
- CC1 (cytotoxic concentration) [4]: 80 µM

SMILES: O=c1ccn(CC(F)(F)F)c(CN2CCOCC2)c1O [Apo7323, 3-hydroxy-2-(morpholinomethyl)-1-(2,2,2-trifluoroethyl)pyridin-4(1H)-one]
- CC2 (cytotoxic concentration) [3]: 320 µM
- CC1 (cytotoxic concentration) [3]: 160 µM
- EC100 [4]: 20 µM
- minimal effective concentration [4]: 1 µM
- CC2 (cytotoxic concentration) [4]: 80 µM
- CC1 (cytotoxic concentration) [4]: 80 µM
- CL [6]: 33.2 mL/min/kg
- Brain AUC_D_obs [6]: 1.010 kg·µg·h/mL/mg
- Brain Cmax_D [6]: 0.218 kg·µg/mL/mg
- Plasma AUC_D_obs [6]: 1.630 kg·µg·h/mL/mg
- Plasma Cmax_D [6]: 0.400 kg·µg/mL/mg

SMILES: Cc1c(O)c(=O)c(C(N2CCOCC2)C(F)(F)F)cn1C (stereo not shown) [Apo7435, 3-hydroxy-1,2-dimethyl-5-(2,2,2-trifluoro-1-morpholinoethyl)pyridin-4(1H)-one]
- CC2 (cytotoxic concentration) [3]: 320 µM
- CC1 (cytotoxic concentration) [3]: 80 µM
- EC100 [4]: 10 µM
- minimal effective concentration [4]: 1 µM
- CC2 (cytotoxic concentration) [4]: 40 µM
- CC1 (cytotoxic concentration) [4]: 40 µM
- CL [6]: 110 mL/min/kg
- Brain AUC_D_obs [6]: 0.122 kg·µg·h/mL/mg
- Brain Cmax_D [6]: 0.102 kg·µg/mL/mg
- Plasma AUC_D_obs [6]: 0.516 kg·µg·h/mL/mg
- Plasma Cmax_D [6]: 0.312 kg·µg/mL/mg

- pKa1 [2, 9]: pKa1 = 9.92
- pKa2 [2, 9]: pKa2 = 3.55
- pKa1 [5]: pKa1 = 10.6
- pKa2 [5]: pKa2 = 4.0
SMILES: Cc1c(O)c(=O)ccn1C [Deferiprone, 3-hydroxy-1,2-dimethylpyridin-4(1H)-one, reference compound]
